Assay: Inhibition of wild type influenza A virus H5N1 (A/chicken/Hubei/327/2004) matrix protein 2 transfected in yeast assessed as yeast growth restoration measured after 46 to 48 hrs
In the case of `Cc1cc(CNS(=O)(=O)c2ccc(Br)cc2)c(C)s1`, the EC50 is reported as 1580 nM. `Cc1cc(CNS(=O)(=O)c2ccc([N+](=O)[O-])cc2)c(C)o1` showed an EC50 of 1710 nM. `Cc1cc(CNS(=O)(=O)c2ccc(Cl)cc2)c(C)s1` showed an EC50 of 1080 nM. In the case of `Cc1cc(CNS(=O)(=O)c2ccc(Cl)cc2)c(C)o1`, the EC50 is reported as 3070 nM. `O=[N+]([O-])c1ccc(S(=O)(=O)NCc2csc3ccccc23)cc1` showed an EC50 of 3440 nM. For `Cc1cc(CNS(=O)(=O)c2ccc(C#N)cc2)c(C)s1`, the EC50 was 1400 nM. With `Cc1cc(CNS(=O)(=O)c2ccc([N+](=O)[O-])cc2)c(C)s1` the EC50 was 2210 nM.
